Assay results from the NIST ThermoML archive (doi:10.1021/je700398k).
Numbers after ± are expanded uncertainties.

Settings: Liquid

ClCC1CO1 (stereo unspecified) [1-chloro-2,3-epoxypropane]
Settings | vapor or sublimation pressure [kPa]
315.67 K | 5.916 ± 0.02
316.53 K | 6.183 ± 0.02
318.81 K | 6.915 ± 0.02
321.9 K | 8.015 ± 0.021
324.03 K | 8.859 ± 0.021
327.03 K | 10.18 ± 0.021
330.21 K | 11.74 ± 0.021
334.22 K | 14.01 ± 0.022
334.77 K | 14.32 ± 0.022
337.79 K | 16.3 ± 0.022
339.71 K | 17.66 ± 0.023
343.98 K | 21.05 ± 0.023
345.99 K | 22.82 ± 0.024
347.15 K | 23.9 ± 0.024
350.87 K | 27.61 ± 0.025
352.3 K | 29.16 ± 0.025
354.46 K | 31.66 ± 0.026
357.56 K | 35.49 ± 0.027
359.92 K | 38.7 ± 0.028
363.28 K | 43.68 ± 0.029
367.42 K | 50.42 ± 0.031
371.36 K | 57.63 ± 0.032
375.06 K | 65.2 ± 0.037
388.29 K | 98.82 ± 0.04

CN1CCCC1=O [N-methylpyrrolidone]
Settings | vapor or sublimation pressure [kPa]
380.73 K | 4.742 ± 0.02
383.12 K | 5.24 ± 0.02
386.38 K | 5.98 ± 0.02
387.92 K | 6.361 ± 0.02
389.88 K | 6.862 ± 0.02
393.04 K | 7.775 ± 0.021
400.46 K | 10.29 ± 0.021
403.85 K | 11.62 ± 0.021
406.68 K | 12.87 ± 0.021
408.96 K | 13.96 ± 0.022
411.42 K | 15.22 ± 0.022
413.77 K | 16.5 ± 0.022
416.81 K | 18.28 ± 0.022
420.94 K | 20.97 ± 0.023
424.65 K | 23.65 ± 0.023
427.56 K | 25.96 ± 0.024
432.29 K | 30.08 ± 0.025
435.85 K | 33.54 ± 0.025
439.12 K | 36.99 ± 0.026
441.74 K | 39.96 ± 0.027
444.04 K | 42.73 ± 0.027
446.64 K | 46.02 ± 0.028
451.08 K | 52.18 ± 0.029
457.46 K | 62.11 ± 0.033
475.72 K | 99.4 ± 0.037

CN1CCCCCC1=O [1-methylazacycloheptan-2-one]
Settings | vapor or sublimation pressure [kPa]
402.95 K | 4.019 ± 0.02
405.13 K | 4.39 ± 0.02
411.63 K | 5.651 ± 0.02
415.53 K | 6.531 ± 0.02
420.7 K | 7.906 ± 0.021
424.29 K | 8.986 ± 0.021
428.38 K | 10.38 ± 0.021
430.35 K | 11.12 ± 0.021
434.66 K | 12.84 ± 0.021
436.35 K | 13.6 ± 0.021
443.09 K | 16.89 ± 0.022
450.68 K | 21.39 ± 0.023
458.3 K | 26.82 ± 0.024
462.79 K | 30.5 ± 0.024
468.95 K | 36.27 ± 0.026
479.21 K | 47.69 ± 0.03
510.6 K | 101.4 ± 0.036
